According to patent US10087165B2, “Fluoroquinolones and use thereof to treat bacterial infections” (UNIVERSITÉ PIERRE ET MARIE CURIE—PARIS 6 (UPMC), priority 2014, dated 2018):
In brackets after ≈: the same amount, converted by molar mass. Read-outs that look alike come from different tables or passages of the source.

Experiments:
[1] = test system: M. tuberculosis H37Rv GyrA A90V; assay type: cell-based
[2] = test system: M. tuberculosis H37Rv GyrA D94G; assay type: cell-based
[3] = test system: multidrug-resistant M. tuberculosis clinical strain XCC1503082245; assay: microbe, parasite or virus in culture; assay type: cell-based; settings: Mycobacterium tuberculosis; MDR clinical strain; Table 3
[4] = test system: multidrug-resistant M. tuberculosis clinical strain KC1503006247; assay: microbe, parasite or virus in culture; assay type: cell-based; settings: Mycobacterium tuberculosis; MDR clinical strain; Table 3
[5] = test system: multidrug-resistant M. tuberculosis clinical strain GV1503014223; assay: microbe, parasite or virus in culture; assay type: cell-based; settings: Mycobacterium tuberculosis; MDR clinical strain; Table 3
[6] = test system: M. tuberculosis H37Rv GyrB D500N; assay type: cell-based
[7] = test system: M. tuberculosis H37Rv GyrA A90V; settings: Table 2, published previously (Poissy et al. 2010); cited from earlier work
[8] = test system: M. tuberculosis H37Rv GyrA D94G; settings: Table 2, published previously (Poissy et al. 2010); cited from earlier work
[9] = test system: quinolone-resistant M. tuberculosis strains (GyrB D500N, GyrA D94G and GyrA A90V strains); assay type: cell-based

## O=C(O)c1cn(C2CC2)c2cc(N3CCNCC3)c(F)cc2c1=O [Ciprofloxacin, ciprofloxacin, reference compound]
[1]
  MIC (M. tuberculosis) A90V: ≥24 µM
[2]
  MIC (M. tuberculosis) D94G: ≥24 µM

## CCCCCCCN1CCN(c2c(F)cc3c(=O)c(C(=O)O)cn(C4CC4)c3c2OC)CC1 [Compound 15, 1-cyclopropyl-6-fluoro-7-(4-heptylpiperazin-1-yl)-8-methoxy-4-oxo-1,4-dihydroquinoline-3-carboxylic acid]
[3]
  MIC: 1 µM (≈ 0.46 µg/mL)
[1]
  MIC M. tuberculosis H37Rv GyrA A90V: 2.2 µM (≈ 1.01 µg/mL)
[4]
  MIC: 1 µM (≈ 0.46 µg/mL)
[5]
  MIC: 1 µM (≈ 0.46 µg/mL)
[6]
  MIC M. tuberculosis H37Rv GyrB D500N: 2.2 µM (≈ 1.01 µg/mL)
[2]
  MIC M. tuberculosis H37Rv GyrA D94G: 0.5 µM (≈ 0.23 µg/mL)

## CCCCCCCCCN1CCN(c2c(F)cc3c(=O)c(C(=O)O)cn(C4CC4)c3c2OC)CC1 [Compound 17, 1-cyclopropyl-6-fluoro-8-methoxy-7-(4-nonylpiperazin-1-yl)-4-oxo-1,4-dihydroquinoline-3-carboxylic acid]
[3]
  MIC: 1 µM (≈ 0.488 µg/mL)
[1]
  MIC M. tuberculosis H37Rv GyrA A90V: 2 µM (≈ 0.975 µg/mL)
[4]
  MIC: < 0.12 µM
[5]
  MIC: < 0.12 µM
[6]
  MIC M. tuberculosis H37Rv GyrB D500N: 0.5 µM (≈ 0.244 µg/mL)
[2]
  MIC M. tuberculosis H37Rv GyrA D94G: 2 µM (≈ 0.975 µg/mL)

## CCCCCCCCCCCN1CCN(c2c(F)cc3c(=O)c(C(=O)O)cn(C4CC4)c3c2OC)CC1 [Compound 19, 1-cyclopropyl-6-fluoro-8-methoxy-4-oxo-7-(4-undecylpiperazin-1-yl)-1,4-dihydroquinoline-3-carboxylic acid]
[3]
  MIC: 0.5 µM (≈ 0.258 µg/mL)
[1]
  MIC M. tuberculosis H37Rv GyrA A90V: 10 µM (≈ 5.16 µg/mL)
[4]
  MIC: 0.12 µM (≈ 0.0619 µg/mL)
[5]
  MIC: 0.5 µM (≈ 0.258 µg/mL)
[6]
  MIC M. tuberculosis H37Rv GyrB D500N: 2 µM (≈ 1.03 µg/mL)
[2]
  MIC M. tuberculosis H37Rv GyrA D94G: 10 µM (≈ 5.16 µg/mL)

## CCCCCCCCCCCCN1CCN(c2c(F)cc3c(=O)c(C(=O)O)cn(C4CC4)c3c2OC)CC1 [Compound 20, 1-cyclopropyl-7-(4-dodecylpiperazin-1-yl)-6-fluoro-8-methoxy-4-oxo-1,4-dihydroquinoline-3-carboxylic acid]
[3]
  MIC: 0.47 µM (≈ 0.249 µg/mL)
[1]
  MIC M. tuberculosis H37Rv GyrA A90V: 1.9 µM (≈ 1.01 µg/mL)
[4]
  MIC: 0.47 µM (≈ 0.249 µg/mL)
[5]
  MIC: 0.47 µM (≈ 0.249 µg/mL)
[6]
  MIC M. tuberculosis H37Rv GyrB D500N: 0.23 µM (≈ 0.122 µg/mL)
[2]
  MIC M. tuberculosis H37Rv GyrA D94G: 1.9 µM (≈ 1.01 µg/mL)

## COc1c(N2CCNC(C)C2)c(F)cc2c(=O)c(C(=O)O)cn(C3CC3)c12 (stereo not drawn) [Gatifloxacin, gatifloxacin]
[7]
  MIC (M. tuberculosis) A90V: 5.33 µM (≈ 2 µg/mL)
[8]
  MIC (M. tuberculosis) D94G: 2.66 µM (≈ 0.999 µg/mL)

## CCCCCCCCCCN1CCN(c2cc3c(cc2F)c(=O)c(C(=O)O)cn3C2CC2)CC1 [Quin 9, 1-cyclopropyl-7-(4-decylpiperazin-1-yl)-6-fluoro-4-oxo-1,4-dihydroquinoline-3-carboxylic acid]
[1]
  MIC (M. tuberculosis) A90V: ≥4.8 µM
[2]
  MIC (M. tuberculosis) D94G: ≥4.8 µM

## CCCCCCCCN1CCN(c2cc3c(cc2F)c(=O)c(C(=O)O)cn3C2CC2)CC1 [Quin 16, 1-cyclopropyl-6-fluoro-7-(4-octylpiperazin-1-yl)-4-oxo-1,4-dihydroquinoline-3-carboxylic acid]
[1]
  MIC (M. tuberculosis) A90V: 6.7 µM (≈ 2.97 µg/mL)
[2]
  MIC (M. tuberculosis) D94G: 13.5 µM (≈ 5.99 µg/mL)

## CCCCCN1CCN(c2c(F)cc3c(=O)c(C(=O)O)cn(C4CC4)c3c2OC)CC1 [Quin 17, 1-cyclopropyl-6-fluoro-8-methoxy-4-oxo-7-(4-pentylpiperazin-1-yl)-1,4-dihydroquinoline-3-carboxylic acid]
[1]
  MIC (M. tuberculosis) A90V: 18.5 µM (≈ 7.98 µg/mL)
[2]
  MIC (M. tuberculosis) D94G: >18.5 µM

## CCCCCCCCN1CCN(c2c(F)cc3c(=O)c(C(=O)O)cn(C4CC4)c3c2OC)CC1 [Quin 18, 1-cyclopropyl-6-fluoro-8-methoxy-7-(4-octylpiperazin-1-yl)-4-oxo-1,4-dihydroquinoline-3-carboxylic acid]
[3]
  MIC: 0.12 µM (≈ 0.0568 µg/mL)
[1]
  MIC (M. tuberculosis) A90V: 0.5 µM (≈ 0.237 µg/mL)
  MIC M. tuberculosis H37Rv GyrA A90V: 2 µM (≈ 0.947 µg/mL)
[9]
  antibacterial activity against quinolone-resistant M. tuberculosis strains (in words): high antibacterial activity
[4]
  MIC: < 0.12 µM
[5]
  MIC: < 0.12 µM
[6]
  MIC M. tuberculosis H37Rv GyrB D500N: <0.12 µM
[2]
  MIC (M. tuberculosis) D94G: 2 µM (≈ 0.947 µg/mL)
  MIC M. tuberculosis H37Rv GyrA D94G: 2 µM (≈ 0.947 µg/mL)

## CCCCCCCCCCN1CCN(c2c(F)cc3c(=O)c(C(=O)O)cn(C4CC4)c3c2OC)CC1 [Quin 19, 1-cyclopropyl-7-(4-decylpiperazin-1-yl)-6-fluoro-8-methoxy-4-oxo-1,4-dihydroquinoline-3-carboxylic acid]
[3]
  MIC: 0.5 µM (≈ 0.251 µg/mL)
[1]
  MIC (M. tuberculosis) A90V: 0.5 µM (≈ 0.251 µg/mL)
  MIC M. tuberculosis H37Rv GyrA A90V: 1 µM (≈ 0.502 µg/mL)
[9]
  antibacterial activity against quinolone-resistant M. tuberculosis strains (in words): high antibacterial activity
[4]
  MIC: < 0.12 µM
[5]
  MIC: < 0.12 µM
[6]
  MIC M. tuberculosis H37Rv GyrB D500N: 0.5 µM (≈ 0.251 µg/mL)
[2]
  MIC (M. tuberculosis) D94G: 1 µM (≈ 0.502 µg/mL)
  MIC M. tuberculosis H37Rv GyrA D94G: 2 µM (≈ 1 µg/mL)

## CCCCCCCCCCCCCCCCN1CCN(c2c(F)cc3c(=O)c(C(=O)O)cn(C4CC4)c3c2OC)CC1 [Quin 20, 1-cyclopropyl-6-fluoro-7-(4-hexadecylpiperazin-1-yl)-8-methoxy-4-oxo-1,4-dihydroquinoline-3-carboxylic acid]
[1]
  MIC (M. tuberculosis) A90V: 13.7 µM (≈ 8.03 µg/mL)
[2]
  MIC (M. tuberculosis) D94G: >13.7 µM
